Measurements taken from US20190150455A1, “COMPOSITIONS OF SAPONINS AND PLANT EXTRACTS” (Y&B MOTHER'S CHOICE LTD., priority 2016, published 2019).

Test system: E. coli, S. aureus, P. aeruginosa, C. albicans and A. Brasiliensis
Assay: Challenge test, statements on all tested microorganisms together
Format: cell-based
Details: non-preserved cream
Method: The various lotion or cleansing formulae were contaminated by suitable microorganisms (bacteria and yeast), as described below. The so-prepared samples were incubated as described below. Using serial dilutions and plate counts, aliquots were taken during the incubation period for determining microorganism count. Tested Microorganisms: E. coli (ATCC 8739); S. aureus (ATCC 6538); P. aeruginosa (ATCC 9027); C. albicans (ATCC 10231) and A. Brasiliensis (ATCC 16404)). Bacteria, yeast, and mold suspensions were prepared according to ISO 11930; TSA culture medium for the bacteria was obtained from Hylab (Cat. No PD-087/A); PDA culture medium for A. brasiliensis was obtained from Hylab (Cat. No PD-043); SDA culture medium for C. albicans was obtained from Hylab (Cat. No PD-044); 0.1% peptone was prepared by mixing 1 g/l Peptone in sterile water. The test was performed according ISO 11930. Each sample was contaminated with microorganisms to obtain the range of 10^5-10^6 cfulml. The inoculated formulation was mixed thoroughly to ensure a homogeneous distribution of the inoculum. Samples were stored at 25° C. Each sample was sampled in intervals of 2, 7, 14, 21 and 28 days, according to the following procedure: 100 μl of the inoculated formulation was streaked on suitable agar medium. The plates were incubated at 37° C. for bacteria and 25° C. for yeast and mold. […]

CCCCCCCC(=O)OCC(O)CO (stereo not shown) [glyceryl caprylate]
Antimicrobial activity against the tested microorganisms, in words: improved the antimicrobial activity of the tested formulations
